From ChEMBL document CHEMBL1201862, “PubChem BioAssay data set” (2004) come the findings set out here.

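Where inhibition never reached the appropriate level, the endpoint shown equals the highest concentration tested. Otherwise, values were interpolated linearly from a five-concentration, 48-hour dose response in 96-well plates. Here, GI50 denotes the concentration required for 50% inhibition of growth.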 The source made the active and inactive calls. No stated cut-off is given here; in the data, active = GI50 up to about 1.1 µM and inactive = higher. A value given as a limit tells only on which side of the number the result lay.

Assay in all cases: NCI-60 cell line screen, 48 h
Assay [1] deals with HOP-62.
In assay [2] the test system is SF-539.
The test system of assay [3] is HCC 2998.
Assay [4] concerns A549.
Assay [5] relates to UACC-62.
The subject of assay [6] is T47D.
For assay [7], the system named is SF-295.
Assay [8] has as its system TK-10.
Assay [9] concerns OVCAR-4.
In assay [10] the test system is HL-60.
In assay [11] the test system is MDA-N.
For assay [12], the system named is DU-145.
Assay [13] has as its system SK-MEL-5.
Assay [14] concerns RPMI-8226.
In assay [15] the test system is EKVX.
The subject of assay [16] is UO-31.
Assay [17] deals with BT-549.

`CC1=NN(C(=O)CSc2nc3ccc(I)cc3c(=O)n2Cc2ccccc2)C(=O)C1`: the GI50 in assay [1] was 39.6 µM (inactive); in [2], 35.8 µM (inactive); in assay [3] it was 39.1 µM (inactive); in [4], 34 µM (inactive); in assay [5], 26.4 µM (inactive); in [6], 19.1 µM (inactive). The GI50 was 27.3 µM (inactive) in assay [7]; 47.6 µM (inactive) in assay [8]; 24.2 µM (inactive) in assay [9]; 33.3 µM (inactive) in [10]; 31.2 µM (inactive) in assay [11]; 37.1 µM (inactive) in [12]. For the same molecule, the figures for the GI50 in [13], in assay [14] and in assay [15] were 21.7 µM (inactive), 35 µM (inactive) and 23.6 µM (inactive), respectively.

With `CC1=NN(c2cccc(Cl)c2)C2(SCC(=O)N2c2nc3ccccc3s2)C1=CC=Cc1ccccc1` (centres undefined), the GI50 in assay [1] was 36.1 µM (inactive); in assay [16] it was 23.6 µM (inactive); in [2], 44.1 µM (inactive); in assay [3], 32.3 µM (inactive); in assay [6], 34.4 µM (inactive); in [7], 35.2 µM (inactive). The GI50 is 62.4 µM (inactive) in assay [8]; 37.8 µM (inactive) in assay [9]; 1.47 µM (inactive) in assay [10]; 34.1 µM (inactive) in [11]; 21.3 µM (inactive) in assay [12]; 18.9 µM (inactive) in [13]. Further, the values for the GI50 in [14] and in assay [15] were 23 µM (inactive) and 54.2 µM (inactive), respectively.

As to `CSCCC(NCc1c(O)ccc2ccc(=O)oc12)C(=O)O` (centres undefined), the GI50 in assay [1], in assay [16], in assay [2], in assay [3], in assay [4] and in assay [5] was > 100 µM (inactive) each time. In addition, the GI50 in [6], in [7], in assay [8], in assay [9], in assay [10] and in [11] was > 100 µM (inactive) throughout. For the same molecule, the GI50 was > 100 µM (inactive) in assay [12], 61.5 µM (inactive) in [13], > 100 µM (inactive) in assay [14] and > 100 µM (inactive) in assay [15].

On to `O=C1c2ccccc2C(=O)c2sc(Nc3ccccc3C(F)(F)F)nc21`, for which the GI50 was 14 µM (inactive) in assay [1]; 12.1 µM (inactive) in assay [16]; 19.9 µM (inactive) in assay [2]; 15.5 µM (inactive) in assay [3]; 21.2 µM (inactive) in [4]; 11.6 µM (inactive) in assay [5]. For the same molecule, the GI50 is 12 µM (inactive) in assay [6]; 15.6 µM (inactive) in [7]; 19.7 µM (inactive) in assay [8]; 3.74 µM (inactive) in [10]; 12.5 µM (inactive) in [11]; 16.9 µM (inactive) in [12]. In addition, the GI50 in [13] is 8.05 µM (inactive); in assay [14], 13 µM (inactive); in assay [15] it was 18.2 µM (inactive).

For the molecule `O=C(O)c1cccc2c1/C(=N/Nc1ccccc1)CC2`, the GI50 in [1] was > 100 µM (inactive); in assay [16], > 100 µM (inactive); in assay [2] it was > 100 µM (inactive); in assay [3] it was > 100 µM (inactive); in [6] it was 9.84 µM (inactive); in [7], 17.2 µM (inactive). Further, the GI50 in assay [8], in [9], in [11], in assay [12], in [13] and in assay [14] was > 100 µM (inactive) each time. For the same molecule, the GI50 in [15] is > 100 µM (inactive).

On to `CN(C)c1ccc(/C=C/C(=O)CC(=O)/C=C/c2ccc(N(C)C)cc2)cc1`, for which the GI50 was > 100 µM (inactive) in assay [1]; > 100 µM (inactive) in assay [16]; > 100 µM (inactive) in assay [2]; > 100 µM (inactive) in assay [3]; > 100 µM (inactive) in assay [4]; 56.4 µM (inactive) in [5]. The GI50 in assay [6] was > 100 µM (inactive); in assay [7], > 100 µM (inactive); in assay [8] it was > 100 µM (inactive); in assay [9], > 100 µM (inactive); in [10], > 100 µM (inactive); in [11], 83.2 µM (inactive). Besides, the GI50 in assay [12], in assay [13], in assay [14] and in assay [15] was > 100 µM (inactive) throughout.

Regarding `C#CC1(O)CCCCCCCCC2(CCCCCCCC1)OCCO2`, the GI50 is 29.7 µM (inactive) in assay [1]; < 0.01 µM (active) in assay [16]; 18 µM (inactive) in [2]; 15.5 µM (inactive) in assay [3]; 13.9 µM (inactive) in assay [4]; 14.8 µM (inactive) in assay [5]. In addition, the GI50 in assay [6] was 15.5 µM (inactive); in [7] it was 19.8 µM (inactive); in [8], 20.7 µM (inactive); in [9], 4.81 µM (inactive); in [10] it was 13.5 µM (inactive); in assay [11] it was 20.9 µM (inactive). Besides, the GI50 is 17.3 µM (inactive) in [12], 19.2 µM (inactive) in assay [13], 0.414 µM (active) in assay [14] and 18.4 µM (inactive) in assay [15].

For `CC(=O)Oc1cccc2c1C(=O)CCCC2`, the GI50 in [1], in assay [16], in assay [2], in [3], in [17] and in [4] was > 100 µM (inactive) each time. Further, the GI50 in assay [5], in [6], in [7], in assay [8], in assay [9] and in [10] was > 100 µM (inactive) in each case. For the same molecule, the GI50 in assay [12], in assay [13] and in assay [15] was > 100 µM (inactive) each time.

In the case of `CC1(C)C(=S)C(C)(C)C1=S`, the GI50 in assay [1], in assay [16], in [2], in assay [3], in assay [4] and in [5] was > 100 µM (inactive) each time. The GI50 in assay [6], in [8], in [9], in assay [11], in assay [12] and in assay [13] was > 100 µM (inactive) each time. The GI50 in [14] and in [15] was > 100 µM (inactive) throughout.

Turning to `c1ccc2c(c1)c1c(n2CCOCCN2CCOCC2)CCCC1`, the GI50 is 26.3 µM (inactive) in assay [1]; 27.1 µM (inactive) in assay [16]; 86.1 µM (inactive) in [2]; > 10 µM (inactive) in [3]; 45.2 µM (inactive) in assay [4]; 32.2 µM (inactive) in assay [6]. Moreover, the GI50 in [7] is 23.9 µM (inactive); in assay [8], 18.4 µM (inactive); in assay [9], 14.3 µM (inactive); in assay [10], 20 µM (inactive); in assay [11] it was 37.8 µM (inactive); in assay [12] it was > 100 µM (inactive). Besides, the GI50 in assay [13] was 18.2 µM (inactive); in assay [14], 21 µM (inactive); in assay [15] it was 30.9 µM (inactive).

Take `COc1ccc(S(=O)(=O)c2nnc(S(=O)(=O)Cc3ccccc3)s2)cc1`: the GI50 in assay [1] was 30.3 µM (inactive); in [16], 21.6 µM (inactive); in assay [2], 12 µM (inactive); in assay [17], 27 µM (inactive); in [4] it was 20.8 µM (inactive); in assay [6], 29.6 µM (inactive). Moreover, the GI50 in assay [7] is 33.3 µM (inactive); in assay [8], 15.7 µM (inactive); in assay [9], 44.5 µM (inactive); in assay [12], 17 µM (inactive); in assay [13] it was 19.5 µM (inactive); in [14] it was 6.59 µM (inactive). The GI50 in [15] was 22.4 µM (inactive).

Regarding `Cc1ccc(-c2ccc(Nc3c4ccccc4nc4ccccc34)cc2)cn1`, the GI50 was 1.82 µM (inactive) in assay [1]; 3.13 µM (inactive) in [16]; 3.85 µM (inactive) in [2]; 29 µM (inactive) in [3]; 2.3 µM (inactive) in [4]; 3.08 µM (inactive) in [5]. In addition, the GI50 is 2.17 µM (inactive) in [6]; 2.37 µM (inactive) in [7]; 9.14 µM (inactive) in [8]; 6.07 µM (inactive) in [11]; 3.77 µM (inactive) in assay [12]; 4.41 µM (inactive) in assay [13]. The GI50 was 1.92 µM (inactive) in [14] and 6.64 µM (inactive) in [15].

Turning to `CN1CCN(c2ccc3nc(C4=C(O)C(=O)[C@@H]5C(=C4O)N=C(CO)N5C)[nH]c3n2)CC1`, the GI50 in [1] was > 100 µM (inactive); in assay [16] it was > 100 µM (inactive); in assay [2] it was 33.5 µM (inactive); in assay [3], 68.4 µM (inactive); in assay [17], > 100 µM (inactive); in [4] it was > 100 µM (inactive). For the same molecule, the GI50 in assay [5] is 33.3 µM (inactive); in assay [6] it was 17.7 µM (inactive); in [7], > 100 µM (inactive); in assay [9] it was 75.2 µM (inactive); in assay [10], 40.2 µM (inactive); in assay [12], > 100 µM (inactive). In addition, the GI50 in assay [14] and in assay [15] was > 100 µM (inactive) in each case.

As for `COc1cc(OC)c(C2c3cc4c(cc3OC(N3CCCC3)C2C)OCO4)c(OC)c1` (centres undefined), the GI50 is 16.5 µM (inactive) in assay [1]; 7.67 µM (inactive) in [16]; 12.1 µM (inactive) in [2]; 10.1 µM (inactive) in [3]; 19.7 µM (inactive) in assay [4]; 16.6 µM (inactive) in [5]. For the same molecule, the GI50 is 10.5 µM (inactive) in [6]; 8.97 µM (inactive) in [7]; 19.1 µM (inactive) in assay [8]; 15 µM (inactive) in assay [11]; 13 µM (inactive) in assay [12]; 13.8 µM (inactive) in assay [13]. In addition, the GI50 is 16.4 µM (inactive) in assay [14] and 22.3 µM (inactive) in assay [15].
